Laboratory results published in publication PMC8989888, “Development of optimized drug-like small molecule inhibitors of the SARS-CoV-2 3CL protease for treatment of COVID-19” (Nature Communications, 2022).
Several values for one entry are separate records, joined by “and”; a condition that tells them apart may be missing. Equal entries are not always repeated.

Key:
[1] = Mouse liver microsome stability; conditions: liver microsomes, second (control) series
[2] = biological target: T1, SARS-CoV-2 3CL protease (Severe acute respiratory syndrome coronavirus 2, UniProt P0DTD1); experiment: biochemical; conditions: for IC50: 20 nM protease, read-out: SARS-CoV-2 3CLpro IC50
[3] = biological target: T1, SARS-CoV-2 3CL protease; experiment: biochemical; conditions: for kinact/KI: read-out: SARS-CoV-2 3CLpro kinact/KI
[4] = system: SARS-CoV-2; experiment: microbe, parasite or virus in culture; format: cell-based; conditions: Severe acute respiratory syndrome coronavirus 2, Vero C1008, read-out: SARS-CoV-2 Vero E6 EC50
[5] = system: SARS-CoV-2; experiment: microbe, parasite or virus in culture; format: cell-based; conditions: for EC50: Severe acute respiratory syndrome coronavirus 2, 24 h, read-out: SARS-CoV-2 Huh-7ACE2 EC50
[6] = system: SARS-CoV-2; experiment: microbe, parasite or virus in culture; format: cell-based; conditions: Severe acute respiratory syndrome coronavirus 2, read-out: SARS-CoV-2 EC50
[7] = system: Human coronavirus alpha (strain: 229E); experiment: organism not typed; format: cell-based, HCoV-229E; conditions: Huh-7, read-out: EC50, human coronavirus 229E
[8] = system: Human coronavirus beta (strain: OC43); experiment: organism not typed; format: cell-based, HCoV-OC43; conditions: Huh-7, read-out: EC50, human coronavirus OC43
[9] = system: Influenza A H1N1 (strain: California/07/2009); experiment: microbe, parasite or virus in culture; format: cell-based
[10] = biological target: SARS-CoV-2; experiment: cell-based
[11] = in vitro
[12] = system: SARS-CoV-2; experiment: microbe, parasite or virus in culture; conditions: Severe acute respiratory syndrome coronavirus 2, Caco-2, 72 h, read-out: SARS-CoV-2 Caco-2 EC90
[13] = biological target: T1, SARS-CoV-2 3CL protease; format: binding
[14] = Concentration of inhibitor (nM) 0.19382
[15] = Concentration of inhibitor (nM) 0.49485
[16] = Concentration of inhibitor (nM) 0.79588
[17] = Concentration of inhibitor (nM) 1.09691
[18] = Concentration of inhibitor (nM) 1.39794
[19] = Concentration of inhibitor (nM) 1.69897
[20] = Concentration of inhibitor (nM) 2
[21] = Concentration of inhibitor (nM) 2.30103
[22] = Concentration of inhibitor (nM) 2.60206
[23] = Concentration of inhibitor (nM) -0.10721
[24] = Concentration of inhibitor (nM) -0.40824

Compound | IC50 [2] | normalized activity, dose-response curve (Figure S16) [2, 14] | normalized activity, dose-response curve (Figure S16) [2, 15] | normalized activity, dose-response curve (Figure S16) [2, 16] | normalized activity, dose-response curve (Figure S16) [2, 17] | normalized activity, dose-response curve (Figure S16) [2, 18] | normalized activity, dose-response curve (Figure S16) [2, 19] | normalized activity, dose-response curve (Figure S16) [2, 20] | normalized activity, dose-response curve (Figure S16) [2, 21] | normalized activity, dose-response curve (Figure S16) [2, 22] | normalized activity, dose-response curve (Figure S16) [2, 23] | normalized activity, dose-response curve (Figure S16) [2, 24] | observed inactivation rate vs compound concentration (Figure S19, replicate values) [3] | kinact/KI [3] | EC50 [4] | inhibition of SARS-CoV-2 (Figure s17b dose-response, replicate values) [5] | EC50 [5] | EC50 [10] | binding to 3CL protease by mass spectrometry (in words) [13] | also measured
CCOc1ccc2ccc(=O)oc2c1 [7-ethoxycoumarin] |  |  |  |  |  |  |  |  |  |  |  |  |  |  |  |  |  |  |  | percent remaining (Figure S11f) ([1]; Time T0 min): 100; percent remaining (Figure S11f) ([1]; Time T40 min): 93.3574 and 91.0789; percent remaining (Figure S11f) ([1]; Time T80 min): 86.8345 and 92.3642
CC(C)C[C@H](NC(=O)OCc1cccc(Cl)c1)C(=O)N[C@@H](C[C@@H]1CCNC1=O)C(O)S(=O)(=O)O (some centres unmarked) [EB46] | 23 nM | 94.5875 and 99.4983 | 85.636 and 94.5724 | 82.4718 and 89.5097 | 66.6922 and 69.8061 | 43.7931 and 49.1904 | 26.3066 and 19.407 | 3.283 and 4.675 | 2.2 and 3.398 | 0.4514 and 0.7525 | 95.5867 and 98.0844 | 100 | 0.066 and 0.0593 and 0.077 and 0.0911 and 0.0219 and 0.0804 and 0.0309 and 0.0674 and 0.0293 and 0.0341 and 0.0137 and 0.0021 and 0.0076 and 0.0213 and 0.0308 and 0.0151 and 0.0444 and 0.0119 | 55000 M⁻¹ s⁻¹ | 2000 nM | 95.1515 and 86.8894 and 89.9129 and 91.3208 and 86.4116 and 95.1857 and 65.8333 and 65.5396 and 57.9806 and 19.6057 and 31.892 and 43.1913 and 11.28 and 11.1506 and 22.0558 and -4.012 and 10.0819 and 19.0531 and -4.489 and -1.7527 and 16.6924 | 14 nM | 1100 nM |  | EC50 [6]: 47 nM; EC50 [7]: < 100 nM; EC50 [8]: < 100 nM; effect on replication of Influenza H1N1 (in words) [9]: no effect was observed; EC50 ([9]; Influenza A virus, H1N1, MDCK, read-out: Influenza A (H1N1) MDCK EC50): > 100000 nM; CC50 [11]: > 100000 nM; EC90 [12]: 53 nM
O=C(N[C@@H](CC1CCCCC1)C(=O)N[C@@H](C[C@@H]1CCNC1=O)C(O)S(=O)(=O)O)OCc1cccc(Cl)c1 (some centres unmarked) [EB48] | 200 nM | 110.351 and 97.4198 | 103.827 and 92.511 | 102.384 and 88.7351 | 98.7453 and 87.9169 | 87.2647 and 81.1831 | 80.9285 and 77.1554 | 69.8871 and 61.2964 | 58.4065 and 46.4443 | 43.601 and 36.7527 | 108.281 and 111.58 | 100 | 0.0858 and 0.04 and 0.095 and 0.0226 and 0.0022 and 0.0296 and 0.1194 and 0.0166 and 0.0446 and 0.0488 and 0.0144 and 0.0572 and 0.0269 and -0.02233 and 0.0225 and 0.0208 and 0.0151 and 0.0309 | 35000 M⁻¹ s⁻¹ | 16000 nM |  |  |  | blocked the covalent binding of 10 equivalents of compound 4 | 
CC(C)C[C@H](NC(=O)OCc1ccc2ccccc2c1)C(=O)N[C@@H](C[C@@H]1CCNC1=O)C(O)S(=O)(=O)O (some centres unmarked) [EB56] | 50 nM | 89.823 and 93.9936 | 85.2362 and 82.2757 | 85.487 and 88.0978 | 72.8375 and 72.1422 | 69.3615 and 64.0723 | 53.5944 and 48.1904 | 29.9078 and 31.2768 |  | 3.964 and 3.456 | 94.804 and 91.5247 | 100 | 0.0572 and 0.0815 and 0.095 and 0.0426 and 0.0949 and 0.1078 and 0.0732 and 0.0307 and 0.0058 and 0.0365 and 0.0284 and 0.0434 and 0.0176 and 0.0243 and -0.00666 and 0.0205 and 0.0022 and 0.0219 and 0.0071 and 0.0016 and -0.00538 | 18300 M⁻¹ s⁻¹ | 4000 nM | 102.227 and 102.618 and 99.1767 and 91.8872 and 92.3176 and 92.3719 and 59.4672 and 57.4366 and 41.3693 and 36.9002 and 26.4205 and 14.778 and 9.09 and 16.3686 and 1.374 and -4.092 and 13.2513 and -12.3171 and 9.345 and 11.9707 and 3.907 | 28 nM | 800 nM | blocked the covalent binding of 10 equivalents of compound 4 | 
